The subject of one assay is TT (RET C634W) cells. Briefly: Cell proliferation assay (MTS), TT cells. Format: cell-based. The note with it: Homo sapiens, TT, 72 h, 72 h incubation, MTS readout. The protocol: (§1) MTS testing kit was purchased from Promega. The RPMI-1640, F12, F12K, Fetal bovine serum and Penicillin-Streptomycin were purchased from BI. Glutamine and Dimethyl sulfoxide (DMSO) were purchased from Sigma. TT cells were cultured in F12K supplemented with 10% FBS and LC-2/ad cells were cultured in HamF12: RPMI1640 (1:1) supplemented with 10% FBS and 2 mM Glutamine.
(§2) To investigate whether a compound is able to inhibit the activity of RET fusion and/or mutation in cells, a mechanism-based assay using TT (RET C634W) and LC-2/ad (CCDCl6-RET) cell lines was developed. In this assay, the inhibition of RET fusion and/or mutation was reflected by the inhibition of cell proliferation of TT and LC-2/ad cells. Cells were plated into 96-well plates at the optimized cell density (TT: 5000 cells/well; LC-2/ad: 5000 cells/well). Plates were incubated at 37° C., with 5% CO2 for 24 h. Compounds were serially diluted and added to the plates with the final concentrations as 10000, 3333.3, 1111.1, […], 123.5, 41.2, 13.7, 4.6 and 1.5 nM. Plates were incubated at 37° C., with 5% CO2 for 72 h. An aliquot of 20 μL MTS/100 μL medium mixture solution were added to each well and the plates were incubated for exactly 2 h. The reaction was stopped by adding 25 μL 10% SDS to each well. The absorbance was measured by a microplate reader at 490 nm and 650 nm (reference wavelength). IC50 was calculated using GraphPad Prism 5.0.

The test system of assay [1] is LC-2/ad (CCDCl6-RET) cells. In words: Cell proliferation assay (MTS), LC-2/ad cells. The assay is classed as cell-based. The note with it: Homo sapiens, LC-2-ad, 72 h, LC-2/ad cells (CCDCl6-RET), 72 h incubation, MTS readout. How it is done:
as §1, §2

This is an account of results in US20220041588A1, “SUBSTITUTED IMIDAZO[1,2-A]PYRIDINE AND [1,2,4]TRIAZOLO[1,5-A]PYRIDINE COMPOUNDS AS RET KINASE INHIBITORS” (FOCHON PHARMACEUTICALS, LTD., priority 2018, published 2022).

One may read the IC50 as the midpoint of a concentration-inhibition curve. For the molecule `COc1ccc(C(=O)N2CCN(c3ccc(-c4cc(-c5cnn(C)c5)cc5ncc(C#N)n45)cn3)CC2)cn1` [Example 2, 5-(6-(4-(6-Methoxynicotinoyl)piperazin-1-yl)pyridin-3-yl)-7-(1-methyl-1H-pyrazol-4-yl)imidazo[1,2-a]pyridine-3-carbonitrile], the values for the IC50 (in the assay on TT (RET C634W) cells; in assay [1]) were 63 nM and 54 nM, respectively. As for `Cc1cccc(CN2CCN(c3ccc(-c4cc(-c5cnn(C)c5)cc5ncc(C#N)n45)cn3)CC2)n1` [Example 5, 7-(1-methyl-1H-pyrazol-4-yl)-5-(6-(4-((6-methylpyridin-2-yl)methyl)pi-perazin-1-yl)pyridin-3-yl)imidazo[1,2-a]pyridine-3-carbonitrile], the figures for the half-inhibitory concentration (IC50) (in the assay on TT (RET C634W) cells; in assay [1]) were 71 nM and 80 nM, respectively. Take `COc1ccc(CN2CCN(c3ccc(-c4cc(-c5cnn(C)c5)cc5ncc(C#N)n45)cn3)CC2)cn1` [Example 6, 5-(6-(4-((6-methoxypyridin-3-yl)meth-yl)piperazin-1-yl)pyridin-3-yl)-7-(1-methyl-1H-pyrazol-4-yl)imidazo[1,2-a]pyridine-3-carbonitrile]: the IC50 came out at 42 nM with TT (RET C634W) cells and 44 nM in assay [1]. The corresponding values for `Cn1cc(-c2cc(-c3ccc(N4CCN(C(=O)[C@H](O)c5ccccc5)CC4)nc3)n3c(C#N)cnc3c2)cn1` [Example 7, (R)-5-(6-(4-(2-hydroxy-2-phenylace-tyl)piperazin-1-yl)pyridin-3-yl)-7-(1-methyl-1H-pyrazol-4-yl)imidazo[1,2-a]pyridine-3-carbonitrile] are 11 nM and 16 nM. The matching figures for `CO[C@@H](C(=O)N1CCN(c2ccc(-c3cc(-c4cnn(C)c4)cc4ncc(C#N)n34)cn2)CC1)c1ccccc1` [Example 14, (R)-5-(6-(4-(2-methoxy-2-phenylace-tyl)piperazin-1-yl)pyridin-3-yl)-7-(1-methyl-1H-pyrazol-4-yl)imidazo[1,2-a]pyridine-3-carbonitrile]: 6 nM and 13 nM. The corresponding values for `CC(C)[C@@H](O)C(=O)N1CCN(c2ccc(-c3cc(-c4cnn(C)c4)cc4ncc(C#N)n34)cn2)CC1` [Example 17, (R)-5-(6-(4-(2-hydroxy-3-methylbuta-noyl)piperazin-1-yl)pyridin-3-yl)-7-(1-methyl-1H-pyrazol-4-yl)imidazo [1,2-a]pyridine-3-carbonitrile] are 48 nM and 45 nM.

Take `Cn1cc(-c2cc(-c3ccc(N4CCC(Oc5ccccn5)CC4)nc3)n3c(C#N)cnc3c2)cn1` [Example 18, 7-(1-methyl-1H-pyrazol-4-yl)-5-(6-(4-(pyridin-2-yloxy)piperidin-1-yl)pyr-idin-3-yl)imidazo[1,2-a]pyridine-3-carbonitrile]: the concentration for half-maximal inhibition (IC50) worked out at 1 nM in the assay on TT (RET C634W) cells and 2 nM in assay [1]. The corresponding values for `COc1ccc(OC2CCN(c3ccc(-c4cc(-c5cnn(C)c5)cc5ncc(C#N)n45)cn3)CC2)nn1` [Example 19, 5-(6-(4-((6-methoxypyridazin-3-yl)oxy)piperidin-1-yl)pyridin-3-yl)-7-(1-methyl-1H-pyrazol-4-yl)imidazo[1,2-a]pyridine-3-carbonitrile] are 1 nM and 6 nM. The corresponding values for `Cc1ccc(OC2CCN(c3ccc(-c4cc(-c5cnn(C)c5)cc5ncc(C#N)n45)cn3)CC2)nn1` [Example 20, 7-(1-methyl-1H-pyrazol-4-yl)-5-(6-(4-((6-methylpyridazin-3-yl)oxy)piper-idin-1-yl)pyridin-3-yl)imidazo[1,2-a]pyridine-3-carbonitrile] are 6 nM and 17 nM. Turning to `Cn1cc(-c2cc(-c3ccc(N4CCC(O)(Cc5ccccn5)CC4)nc3)n3c(C#N)cnc3c2)cn1` [Example 21, 5-(6-(4-hydroxy-4-(pyridin-2-ylmeth-yl)piperidin-1-yl)pyridin-3-yl)-7-(1-methyl-1H-pyrazol-4-yl)imidazo[1,2-a]pyridine-3-carbonitrile], the 50% inhibitory concentration (IC50) (in the assay with TT (RET C634W) cells; in assay [1]) was 12 nM throughout.

The molecule `C#Cc1ccc(OC2CCN(c3ccc(-c4cc(OCC5(O)CC5)cc5ncc(C#N)n45)cn3)CC2)cn1` [Example 81, 5-(6-(4-((6-ethynylpyridin-3-yl)oxy)piper-idin-1-yl)pyridin-3-yl)-7-((1-hydroxycyclo-propyl)methoxy)imidazo-[1,2-a]pyridine-3-carbonitrile] yielded a 50% inhibitory concentration (IC50) in the assay on TT (RET C634W) cells of 5 nM. In the assay with TT (RET C634W) cells, `C=Cc1ccc(OC2CCN(c3ccc(-c4cc(OCC(C)(C)O)cc5ncc(C#N)n45)cn3)CC2)cn1` [Example 82, 7-(2-hydroxy-2-methylpropoxy)-5-(6-(4-((6-vinylpyridin-3-yl)oxy)piperidin-1-yl)pyridin-3-yl)imidazo[1,2-a]pyridine-3-car-bonitrile] returned a 50% inhibitory concentration (IC50) of 15 nM. The same measure, in the same setting: as for `C=Cc1ccc(OC2CCN(c3ccc(-c4cc(OCC5(O)CC5)cc5ncc(C#N)n45)cn3)CC2)cn1` [Example 83, 7-((1-hydroxycyclopropyl)methoxy)-5-(6-(4-((6-vinylpyridin-3-yl)oxy)piperidin-1-yl)pyridin-3-yl)imidazo[1,2-a]pyridine-3-carbonitrile], the figure is 17 nM; as for `CC(C)(O)COc1cc(-c2ccc(N3CCC(Oc4ccc(OC5CC5)nc4)CC3)nc2)n2c(C#N)cnc2c1` [Example 84, 5-(6-(4-((6-cyclopropoxypyridin-3-yl)oxy)piperidin-1-yl)pyridin-3-yl)-7-(2-hydroxy-2-methylpropoxy)imidazo[1,2-a]pyri-dine-3-carbonitrile], 21 nM; as for `N#Cc1cnc2cc(OCC3(O)CC3)cc(-c3ccc(N4CCC(Oc5ccc(OC6CC6)nc5)CC4)nc3)n12` [Example 85, 5-(6-(4-((6-cyclopropoxypyridin-3-yl)oxy)piperidin-1-yl)pyridin-3-yl)-7-((1-hy-droxycyclopropyl)methoxy)imidazo[1,2-a] pyridine-3-carbonitrile], 12 nM. Still for that read-out and setting: as for `COc1ncc(OC2CCN(c3ccc(-c4cc(OCC5(O)CC5)cc5ncc(C#N)n45)cn3)CC2)cc1F` [Example 87, 5-(6-(4-((5-fluoro-6-methoxypyridin-3-yl)oxy)piperidin-1-yl)pyridin-3-yl)-7-((1-hydroxycyclopropyl)methoxy)imidazo[1,2-a]pyridine-3-carbonitrile], the figure is 38 nM; as for `CCOc1ccc(OC2CCN(c3ccc(-c4cc(OCC(C)(C)O)cc5ncc(C#N)n45)cn3)CC2)cn1` [Example 88, 5-(6-(4-((6-ethoxypyridin-3-yl)oxy)piperi-din-1-yl)pyridin-3-yl)-7-(2-hydroxy-2-meth-ylpropoxy)imidazo[1,2-a]pyridine-3-car-bonitrile], 2 nM. The same measure, in the same setting: as for `COc1ccc(O[C@H]2CCN(c3ccc(-c4cc(OCC(C)(C)O)cc5ncc(C#N)n45)cn3)C2)cn1` [Example 89, (S)-7-(2-hydroxy-2-methylpropoxy)-5-(6-(3-((6-methoxypyridin-3-yl)oxy)pyrrolidin-1-yl)pyridin-3-yl)imidazo[1,2-a]pyridine-3-carbonitrile], the figure is 45 nM. Regarding `COc1ccc(O[C@H]2CCN(c3ccc(-c4cc(OCC5(O)CC5)cc5ncc(C#N)n45)cn3)C2)cn1` [Example 90, (S)-7-((1-hydroxycyclopropyl)methoxy)-5-(6-(3-((6-methoxypyridin-3-yl)oxy)pyr-rolidin-1-yl)pyridin-3-yl)imidazo[1,2-a] pyridine-3-carbonitrile], in the assay with TT (RET C634W) cells, the concentration for half-maximal inhibition (IC50) is 13 nM.

The molecule `COc1ccc(OC2CN(c3ccc(-c4cc(OCC5(O)CC5)cc5ncc(C#N)n45)cn3)C2)cn1` [Example 92, 7-((1-hydroxycyclopropyl)methoxy)-5-(6-(3-((6-methoxypyridin-3-yl)oxy)azetidin-1-yl)pyridin-3-yl)imidazo[1,2-a]pyridine-3-carbonitrile] displayed an IC50 in the assay on TT (RET C634W) cells of 87 nM. On the same count and under the same terms, as for `COc1ccc(OC2CN(c3ccc(-c4cc(OCC(C)(C)O)cc5ncc(C#N)n45)cn3)C2)cn1` [Example 93, 7-(2-hydroxy-2-methylpropoxy)-5-(6-(3-((6-methoxypyridin-3-yl)oxy)azetidin-1-yl)pyridin-3-yl)imidazo[1,2-a]pyridine-3-carbonitrile], the figure is 39 nM; as for `COc1ccc(O[C@@H]2CCN(c3ccc(-c4cc(OCC(C)(C)O)cc5ncc(C#N)n45)cn3)C2)cn1` [Example 95, (R)-7-(2-hydroxy-2-methylpropoxy)-5-(6-(3-((6-methoxypyridin-3-yl)oxy)pyrrolidin-1-yl)pyridin-3-yl)imidazo[1,2-a]pyridine-3-carbonitrile], 7 nM.

For `COc1ccc(O[C@@H]2CCN(c3ccc(-c4cc(OCC5(O)CC5)cc5ncc(C#N)n45)cn3)C2)cn1` [Example 96, (R)-7-((1-hydroxycyclopropyl)methoxy)-5-(6-(3-((6-methoxypyridin-3-yl)oxy)pyr-rolidin-1-yl)pyridin-3-yl)imidazo[1,2-a] pyridine-3-carbonitrile], the IC50 with TT (RET C634W) cells was 9 nM.
